Measured values taken from patent publication US20240239812A1, “MACROCYCLIC 2-ALLYLTETRAHYDROFURANS AS INHIBITORS OF MCL-1” (JANSSEN PHARMACEUTICA NV, priority 2021, published 2024).
Read-outs that look alike come from different tables or passages of the source.

Assays:
[1] = target: Myeloid Cell Leukemia 1 (Mcl-1) (Homo sapiens (Human), UniProt Q07820); experiment: Terbium labeled Mcl-1 HTRF binding assay, displacement of Cy5-labeled BIM BH3 peptide; details: 25 pM Tb-Mcl-1, 8 nM Cy5 Bim peptide, 60 minutes at room temperature, read-out: Tb-MCL1 Ki
Sequence of Myeloid Cell Leukemia 1 (Mcl-1) (Q07820 whole entry): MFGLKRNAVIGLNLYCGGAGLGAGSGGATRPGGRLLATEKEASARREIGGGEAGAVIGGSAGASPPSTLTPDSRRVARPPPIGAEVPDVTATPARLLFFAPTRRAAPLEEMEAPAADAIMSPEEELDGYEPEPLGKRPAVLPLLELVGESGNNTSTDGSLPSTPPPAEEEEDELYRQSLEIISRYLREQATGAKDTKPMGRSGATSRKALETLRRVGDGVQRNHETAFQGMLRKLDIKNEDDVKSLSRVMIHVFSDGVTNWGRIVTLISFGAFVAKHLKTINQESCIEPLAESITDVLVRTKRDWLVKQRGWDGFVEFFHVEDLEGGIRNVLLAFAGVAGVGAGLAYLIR
Method: Terbium labeled Myeloid Cell Leukemia 1 (Mcl-1) homogeneous time-resolved fluorescence (HTRF) binding assay utilizing the BIM BH3 peptide (H2N—(C/Cy5Mal) WIAQELRRIGDEFN-OH) as the binding partner for Mcl-1.
This assay evaluated inhibition of the BH3 domain: Mcl-1 interaction by measuring the displacement of Cy5-labeled BIM BH3 peptide (H2N—(C/Cy5Mal) WIAQELRRIGDEFN-OH) in the HTRF assay format.
The following assay and stock buffers were prepared for use in the assay: (a) Stock buffer: 10 mM Tris-HCl, pH=7.5+150 mM NaCl, filtered, sterilized, and stored at 4° C.; and (b) 1× assay buffer, where the following ingredients were added fresh to stock buffer: 2 mM dithiothreitol (DTT), 0.0025% Tween-20, 0.1 mg/mL bovine serum albumin (BSA). The 1×Tb-Mcl-1+Cy5 Bim peptide solution was prepared by diluting the protein stock solution using the 1× assay buffer (b) to 25 pM Tb-Mcl-1 and 8 nM Cy5 Bim peptide.
Using the Acoustic ECHO, 100 nL of 100× test compound(s) were dispensed into individual wells of a white 384-well Perkin Elmer Proxiplate, for a final compound concentration of 1× and final DMSO concentration of 1%. Inhibitor control and neutral control (NC, 100 nL of 100% DMSO) were stamped into columns 23 and 24 of assay plate, respectively. Into each well of the plate was then dispensed 10 μL of the 1×Tb-Mcl-1+Cy5 Bim peptide solution. The plate was centrifuged with a cover plate at 1000 rpm for 1 minute, then incubated for 60 minutes at room temperature with plates covered.
The TR-FRET signal was read on an BMG PHERAStar FSX MicroPlate Reader at room temperature using the HTRF optic module (HTRF: excitation: 337 nm, light source: laser, emission A: 665 nm, emission B: 620 nm, integration start: 60 μs, integration time: 400 μs).
The BMG PHERAStar FSX MicroPlate Reader was used to measure fluorescence intensity at two emission wavelengths—665 nm and 620 nm—and report relative fluorescence units (RFU) for both emissions, as well as a ratio of the emissions (665 nm/620 nm)*10,000. The RFU values were normalized to percent inhibition as follows:
% inhibition(((NC−IC)−(compound−IC))/(NC−IC))*100
where IC (inhibitor control, low signal)=mean signal of 1× Tb-MCl-1+Cy5 Bim peptide+inhibitor control or 100% inhibition of Mcl-1; NC (neutral control, high signal)=mean signal 1×Tb-MCl-1+Cy5 Bim peptide with DMSO only or 0% inhibition
An 11-point dose response curve was generated to determine IC50 values (using GenData) based on the following equation:
where Y=% inhibition in the presence of X inhibitor concentration; Top=100% inhibition derived from the IC (mean signal of Mcl-1+inhibitor control); Bottom=0% inhibition derived from the NC (mean signal of Mcl-1+DMSO); Hillslope=Hill coefficient; and IC50=concentration of compound with 50% inhibition in relation to top/neutral control (NC).
Representative compounds of the present invention were tested according to the procedure as described above, with results as listed in the Table below (n.d. means not determined).

[2] = test system: MOLP-8 human multiple myeloma cell line; experiment: Caspase-Glo 3/7 apoptosis induction assay in MOLP-8 cells; assay type: cell-based; details: caspase-3/7 activity, 2 hours at 37° C., averaged over all runs on all batches, read-out: MOLP8 AC50
Excerpt: MCL-1 is a regulator of apoptosis and is highly over-expressed in tumor cells that escape cell death. The assay evaluates the cellular potency of small-molecule compounds targeting regulators of the apoptosis pathway, primarily MCL-1, Bfl-1, Bcl-2, and other proteins of the Bcl-2 family. Protein-protein inhibitors disrupting the interaction of anti-apoptotic regulators with BH3-domain proteins initiate apoptosis.
The Caspase-Glo® 3/7 Assay is a luminescent assay that measures caspase-3 and -7 activities in purified enzyme preparations or cultures of adherent or suspension cells. The assay provides a proluminescent caspase-3/7 substrate, which contains the tetrapeptide sequence DEVD. This substrate is cleaved to release aminoluciferin, a substrate of luciferase used in the production of light. Addition of the single Caspase-Glo® 3/7 Reagent in an “add-mix-measure” format results in cell lysis, followed by caspase cleavage of the substrate and generation of a “glow-type” luminescent signal.
This assay uses the MOLP-8 human multiple myeloma cell line, which is sensitive to MCL-1 inhibition.
Cell cultures were maintained between 0.2 and 2.0×10^6 cells/mL. The cells were harvested by collection in 50 mL conical tubes. The cells were then pelleted at 500 g for 5 mins before removing supernatant and resuspension in fresh pre-warmed culture medium. The cells were counted and diluted as needed.
The assay reagent was prepared by transferring the buffer solution to the substrate vial and mixing. The solution may be stored for up to 1 week at 4° C. with negligible loss of signal.
Compounds were delivered in assay-ready plates (Proxiplate) and stored at −20° C.
Assays always include 1 reference compound plate containing reference compounds. The plates were spotted with 40 nL of compounds (0.5% DMSO final in cells; serial dilution; 30 μM highest conc. 1/3 dilution, 10 doses, duplicates). The compounds were used at room temperature and 4 μL of pre-warmed media was added to all wells except column 2 and 23. The negative control was prepared by adding 1% DMSO in media. The positive control was prepared by adding the appropriate positive control compound in final concentration of 60 μM in media. The plate was prepared by adding 4 μL negative control to column 23, 4 μL positive control to column 2, and 4 μL cell suspension to all wells in the plate. The plate with cells was then incubated at 37° C. for 2 hours. The assay signal reagent is the Caspase-Glo solution described above, and 8 μL was added to all wells. The plates were then sealed and measured after 30 minutes.
The activity of a test compound was calculated as percent change in apoptosis induction as follows: […]

Structure (SMILES)	Ki [1]	AC50 [2]	AC50 ([2]; Homo sapiens, MOLP-8, 2 h)
COc1nn(C)cc1C(=O)NS1(=O)=NC(=O)c2ccc3c(c2)N(C[C@@H]2CCO[C@H]2C(CN2CCN4CCOC[C@@H]4C2)(OC)/C(F)=C/C[C@H](C)C1)C[C@@]1(CCCc2cc(Cl)ccc21)CO3 (single isomer, unassigned) [Compound 28]	0.011 nM	23.2 nM	
COc1nn(C)cc1C(=O)NS1(=O)=NC(=O)c2ccc3c(c2)N(C[C@@H]2CCO[C@H]2C(CN2CCN4CCOC[C@@H]4C2)(OC)/C(F)=C/C[C@H](C)C1)C[C@@]1(CCCc2cc(Cl)ccc21)CO3 (single isomer, unassigned) [Compound 29]	0.17 nM	702 nM	
COc1nn(C)cc1C(=O)NS1(=O)=NC(=O)c2ccc3c(c2)N(C[C@@H]2CCO[C@H]2C(CN2CCN4CCOC[C@@H]4C2)(OC)/C(F)=C/C[C@H](C)C1)C[C@@]1(CCCc2cc(Cl)ccc21)CO3 (single isomer, unassigned) [Compound 30]	0.014 nM	28.6 nM	
CO[C@H]1/C(F)=C/C[C@H](C)[C@@H](C)S(=O)(=O)NC(=O)c2ccc3c(c2)N(C[C@@H]2CCO[C@H]21)C[C@@]1(CCCc2cc(Cl)ccc21)CO3 [Compound 1]	0.218 nM		191 nM
CO[C@@H]1/C(F)=C/C[C@H](C)[C@@H](C)S(=O)(=O)NC(=O)c2ccc3c(c2)N(C[C@@H]2CCO[C@H]21)C[C@@]1(CCCc2cc(Cl)ccc21)CO3 [Compound 2]	1.13 nM		1120 nM
CO[C@H]1/C=C/C[C@H](C)[C@@H](C)S(=O)(=O)NC(=O)c2ccc3c(c2)N(C[C@@H]2CCO[C@H]21)C[C@@]1(CCCc2cc(Cl)ccc21)CO3 [Compound 3]	0.466 nM		432 nM
COCC1/C=C/C[C@H](C)[C@@H](C)S(=O)(=O)NC(=O)c2ccc3c(c2)N(C[C@@H]2CCO[C@@H]12)C[C@@]1(CCCc2cc(Cl)ccc21)CO3 (stereo partly shown) [Compound 16]	0.673 nM		1820 nM
COCC1/C=C/C[C@H](C)[C@@H](C)S(=O)(=O)NC(=O)c2ccc3c(c2)N(C[C@@H]2CCO[C@@H]12)C[C@@]1(CCCc2cc(Cl)ccc21)CO3 (stereo partly shown) [Compound 17]	0.678 nM	2820 nM	
